Experiments:
[1] = compound: C(C(=O)C(=O)O)Br [Bromopyruvate] + NC(=O)Nc1cc(-c2cccc(F)c2)sc1C(=O)N[C@H]1CCCNC1 [AZD7762] (partner 0.2 µM); test: relative viability (nuclei count vs DMSO), 5 days (fraction); higher = more cells survive
Outline: (§1)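 After 5 days of treatment, lung cancer cells in 1536-well plates were fixed and stained in a single step (final 0.05% Triton X-100, 1% formaldehyde, 1 ug/ml Hoechst) and their nuclei counted on 4× images. Treatment had been applied by pin tool the day after seeding as one drug alone or as a fixed anchor-drug dose with five library-drug doses (not always all listed) in √10 steps. Relative viability is the nuclei count of treated wells divided by that of vehicle wells, and values are medians of duplicate plates.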

[2] = compound: C(C(=O)C(=O)O)Br [Bromopyruvate] + O=C(CCCCCCC(=O)Nc1ccccc1)NO [Vorinostat] (partner 1 µM); test: as above
Outline: as §1

Cell Line	relative viability ([1]; first compound 1 µM)	relative viability ([1]; first compound 3.162 µM)	relative viability ([1]; first compound 10 µM)	relative viability ([1]; first compound 31.62 µM)	relative viability ([1]; first compound 100 µM)	relative viability ([2]; first compound 1 µM)	relative viability ([2]; first compound 3.162 µM)	relative viability ([2]; first compound 10 µM)	relative viability ([2]; first compound 31.62 µM)	relative viability ([2]; first compound 100 µM)
201T	0.638	0.715	0.6	0.594	0.603	0.967	1.01	0.984	0.912	0.971
A-427	0.782	0.747	0.883	0.66	0.755	0.87	0.899	0.841	0.767	0.835
ABC-1	0.532	0.995	0.951	0.834	0.734	1.27				0.612
BEN	0.806	0.662	0.743	0.613	0.619	0.588	0.581	0.485	0.608	0.411
CAL-12T	0.633	0.588	0.611	0.568	0.637	0.696	0.769	0.762	0.705	0.489
COR-L23						0.381	0.473	0.432	0.387	0.255
COR-L 105						0.708	0.68	0.645	0.665	0.411
ChaGo-K-1	0.881	0.868	0.874	0.866	0.92	0.818	0.755	0.879	0.703	0.67
EKVX	0.818	0.791	0.662	0.61	0.693	0.668	0.685	0.718	0.729	0.713
EMC-BAC-2	1.04	1.16	1.09	1.04	1.1	0.719	0.336	0.277		0.389
EPLC-272H	0.236	0.205	0.346	0.313	0.258	0.36	0.38	0.359	0.44	0.347
H3255	0.907	0.86	0.964	0.886	0.836	0.941	0.781	0.771	0.763	0.85
HARA	1.98	0.393		0.298	0.289	0.692	0.511	0.628	0.528	0.37
HCC-15	1.22	1.25	1.32	1.25	1.22	0.792	0.838	0.782	0.818	0.686
HCC-44	0.959	1.01	0.963	1.02	1.04	1.12	1.04	1.07	1.1	1.13
HCC-78	0.481	0.624	0.565	0.549	0.463	0.493	0.443	0.444	0.404	0.427
HCC-366	0.272	0.346	0.197	0.254	0.249	0.375	0.368	0.408	0.307	0.227
HCC-827	0.175	0.195	0.198	0.203	0.19	0.844	0.982	0.968	0.886	0.741
HOP-62	0.498	0.573	0.473	0.444	0.665	0.716	0.579	0.569	0.534	0.428
IA-LM						0.964	0.975	1.15	0.861	0.696
LC-2-ad	0.885	0.863	0.881	0.812	0.799	0.706	0.631	0.72	0.645	0.575
LCLC-97TM1	0.224	0.375	0.207	0.275	0.236	0.666	0.671	0.887	0.601	0.655
LCLC-103H	0.726	0.804	0.951	0.751	0.901	0.762	0.757	0.818	0.821	0.691
LK-2	0.423	0.458	0.266	0.474	0.387	0.333	0.203	0.218	0.297	0.165
LOU-NH91	0.801	0.755	0.742	0.771	0.837	1.07	0.961	0.912	1	1

Cell Line	relative viability ([1]; first compound 1 µM)	relative viability ([1]; first compound 3.162 µM)	relative viability ([1]; first compound 10 µM)	relative viability ([1]; first compound 31.62 µM)	relative viability ([1]; first compound 100 µM)	relative viability ([2]; first compound 1 µM)	relative viability ([2]; first compound 3.162 µM)	relative viability ([2]; first compound 10 µM)	relative viability ([2]; first compound 31.62 µM)	relative viability ([2]; first compound 100 µM)
LU99A	0.318	0.364	0.346	0.362	0.341	0.46	0.526	0.567	0.532	0.409
LXF-289	1.07	1.12	1.08	1.07	1.26	0.777	0.796	0.714	0.81	0.677
NCI-H23	0.27	0.22	0.249	0.206	0.251	0.569	0.639	0.64	0.538	0.39
NCI-H322M	0.623	0.58	0.523	0.581	0.628	1.04	0.844	0.739	0.8	0.88
NCI-H358	0.656	0.578	0.609	0.505	0.555	0.77	0.607	0.626	0.541	0.505
NCI-H441	1.01	1.18	1.06	0.978	1.14	0.828	0.856	0.761	0.623	0.607
NCI-H460	0.676	0.698	0.721	0.565	0.621	0.74	0.71	0.599	0.524	0.565
NCI-H520						0.543	0.745	0.706	0.731	0.469
NCI-H522	0.874	0.861	0.821	1.05	0.755	0.93	1.02	1.02	0.799	0.763
NCI-H596	1.08	1.28	1.12	1.17	0.993	0.572	0.633	0.628	0.584	0.757
NCI-H647	0.565	0.63	0.405	0.553	0.568	0.559	0.724	0.399	0.51	0.334
NCI-H650	0.931	1.18	0.934	1.05	0.945	0.438	0.487	0.411	0.441	0.392
NCI-H661						0.767	0.798	0.779	0.712	0.712
NCI-H727	0.664	0.582	0.635	0.521	0.53	1.28	1.26	1.24	0.886	1.23
NCI-H838	0.914	0.913	1.02	0.949	0.935	0.7	0.684	0.652	0.631	0.607
NCI-H1355	0.744	0.882	0.664	0.737	0.648	0.668	0.641	0.646	0.607	0.606
NCI-H1395	0.447	0.398	0.426	0.414	0.42	1.03	0.791	0.649	0.683	0.681
NCI-H1437	1.15	1.1	1.22	1.12	1.14	0.918	0.672	0.74	0.694	0.529
NCI-H1648	0.671	0.721	0.713	0.623	0.551	0.324	0.566	0.563	0.766	0.314
NCI-H1650						0.549	0.388	0.505	0.54	0.304
NCI-H1651	0.441	0.491	0.474	0.403	0.4	0.612	0.573	0.578	0.466	0.345
NCI-H1666	0.966	0.843	0.878	0.872	0.766	1.01	0.978	1.08	0.931	0.858
NCI-H1703	0.119	0.124	0.138	0.13	0.0978					
NCI-H1734	0.536	0.7	0.694	0.53	0.544	0.762	0.86	0.858	0.736	0.724
NCI-H1755	0.432	0.476	0.381	0.51	0.473	0.862	0.819	0.682	0.768	0.651

Cell Line	relative viability ([1]; first compound 1 µM)	relative viability ([1]; first compound 3.162 µM)	relative viability ([1]; first compound 10 µM)	relative viability ([1]; first compound 31.62 µM)	relative viability ([1]; first compound 100 µM)	relative viability ([2]; first compound 1 µM)	relative viability ([2]; first compound 3.162 µM)	relative viability ([2]; first compound 10 µM)	relative viability ([2]; first compound 31.62 µM)	relative viability ([2]; first compound 100 µM)
NCI-H1792	0.678	0.783	0.792	0.798	0.655					
NCI-H1793	0.452	0.536	0.484	0.428	0.522	0.792	0.914	0.794	0.727	0.634
NCI-H1915	0.699	0.681	0.671	0.661	0.689	0.5	0.495	0.529	0.462	0.423
NCI-H1944	0.579	0.521	0.576	0.514	0.54	0.592	0.647	0.582	0.568	0.654
NCI-H1975	0.825	0.691	0.721	0.785	0.703	0.741	0.761	0.687	0.675	0.582
NCI-H1993	0.821	0.872	0.994	0.851	0.982	0.19	0.862	0.83	0.72	0.842
NCI-H2009						0.72	0.682	0.622	0.546	0.266
NCI-H2023						0.547	0.687	0.619	0.464	0.615
NCI-H2085	0.947	1.01	1.04	0.991	0.95	0.769	0.81	0.798	0.764	0.862
NCI-H2087	1.19	1.4	1.36	1.2	1.32	0.814	0.551	0.751	0.528	0.375
NCI-H2126	0.989	1.04	1.2	0.953	1.04	0.82	0.832	0.886	0.829	0.639
NCI-H2170	0.923	0.989	1.19	0.893	0.854	0.911	0.853	0.79	0.802	0.705
NCI-H2228						0.454	0.723	0.764	0.581	0.372
NCI-H2342	0.397	0.436	0.451	0.47	0.481	0.807	0.806	0.7	0.622	0.684
NCI-H2347	0.751	0.79	0.754	0.711	0.773	0.645	0.541	0.542	0.495	0.473
NCI-H2405	0.998	0.888	0.887		0.254	1.35	1.01	0.814		0.742
NCI-H3122	1.03	0.967	1.04	0.989	0.921	1.05	0.991	1.11	0.829	0.718
PC-3 [JPC-3]	0.903		0.933		0.638	1.1		0.536		0.764
PC-14	0.483	0.401	0.407	0.412	0.384	0.755	0.706	0.587	0.516	0.482
RERF-LC-KJ	0.97	1.04	1.29	0.978	0.889	0.707	0.655	0.673	0.626	0.516
SK-LU-1						0.744	0.81	0.728	0.632	0.713
SK-MES-1						1.08	1.2	1.04	0.94	0.965
SW 900	0.629	0.528	0.519	0.564	0.66	0.393	0.487	0.559	0.377	0.476
SW 1573						0.799	0.861	0.924	0.478	0.0513
UMC-11						0.479	0.357	0.289	0.274	0.2

— the supplement of paper PMC10307832
